This is an account of results in patent publication US8236840B2, “Thiopene containing analogues of fluconazole as antifungal agents and process for their preparation” (Council of Scientific & Industrial Research, priority 2008, dated 2012).

What all share (type): cell-based
Assay [1] concerns Candida albicans ATCC 24433. The assay is described as follows: Antifungal MIC by broth dilution (CLSI M27-A2), RPMI 1640 with MOPS. The conditions noted are these: broth macro-dilution, end point after 48 hours, MIC = 80% inhibition vs growth control (Amphotericin B: complete inhibition); for MIC: Candida albicans, ATCC24433, read-out: MIC C. albicans ATCC 24433. The procedure: (§1) The compounds of Formula 1 were tested for antifungal activity against Candida albicans, Aspergillus niger and Fusarium proliferatum. In vitro evaluation of antifungal activity was performed by determining the minimum inhibitory concentration (MIC) following standard methods (CLSI: Reference method for broth dilution antifungal susceptibility testing of yeasts; Approved standard, second edition M27-A2, 2002; CLSI: Reference method for broth dilution antifungal susceptibility testing of filamentous fungi; Approved standard M38-A, 2002). Anti-fungal susceptibility testing of these compounds of Formula 1 was done by broth dilution method using RPMI 1640 medium with MOPS buffer. Known anti-fungal agents like Fluconazole and Amphotericin-B were used as standards. End points were determined after 48 hours visually and by using spectrophotometer wherever necessary.

Assay [2] concerns Fusarium proliferatum ATCC 10052. As to the kind of experiment: Antifungal MIC by broth dilution (CLSI M38-A), RPMI 1640 with MOPS. The conditions noted are these: broth macro-dilution, end point after 48 hours, MIC = 80% inhibition vs growth control (Amphotericin B: complete inhibition); for MIC: Fusarium proliferatum, ATCC10052, read-out: MIC F. proliferatum ATCC 10052. As for the experimental part: as §1

Assay [3] concerns Aspergillus niger ATCC 16404. The assay is described as above. The conditions noted are these: broth macro-dilution, end point after 48 hours, MIC = 80% inhibition vs growth control (Amphotericin B: complete inhibition); for MIC: Aspergillus niger, ATCC16404. The procedure:
as §1

Values after ≈ are worked out from the molar mass of the structure shown. Bounds are passed on as bounds.

As to `CCOC(=O)c1c(NCC(O)(Cn2cncn2)c2ccc(F)cc2F)sc2c1CCCC2` (stereo not drawn) [Compound 1h, Ethyl 2-[2-(2,4-difluorophenyl)-2-hydroxy-3-[1,2,4]triazol-1-yl-propylamino]-4,5,6,7-tetrahydro-benzo[b]thiophene-3-carboxylate], the minimum inhibitory concentration (MIC) (usually the smallest concentration in the dilution series that meets the test's criterion for growth inhibition) in assay [1] is 4 µg/mL (≈ 8.65 µM); in assay [2] it was over 4 µg/mL; in assay [3], over 4 µg/mL.

As to `CCCCCCCc1cc(C(=O)OCC)c(NCC(O)(Cn2cncn2)c2ccc(F)cc2F)s1` (stereo not drawn) [Compound 1d, Ethyl 2-[2-(2,4-difluorophenyl)-2-hydroxy-3[1,2,4]triazol-1-yl-propylamino]-5-heptyl-thiophene-3-carboxylate], the MIC in assay [1], in assay [2] and in assay [3] was over 8 µg/mL throughout.

For `CCOC(=O)c1c(NCC(O)(Cn2cncn2)c2ccc(F)cc2F)sc2c1CCC2` (stereo not drawn) [Compound 1g, Ethyl 2-[2-(2,4-difluorophenyl)-2-hydroxy-3-[1,2,4]triazol-1-yl-propylamino]-5,6-dihydro-4H-cyclopenta[b]thiophene-3-carboxylate], the MIC in assay [1] was 2 µg/mL (≈ 4.46 µM); in assay [2], over 8 µg/mL; in assay [3], over 8 µg/mL.

With `CCOC(=O)c1cc(CCCOCc2ccccc2)sc1NCC(O)(Cn1cncn1)c1ccc(F)cc1F` (stereo not drawn) [Compound 1f, Ethyl 5-(3-benzyloxypropyl)-2-[2-(2,4-difluorophenyl)-2-hydroxy-3-[1,2,4]triazol-1-yl-propylamino]-thiophene-3-carboxylate], the MIC in assay [1], in assay [2] and in assay [3] was over 4 µg/mL each time.

Regarding `CCCCCCc1sc(NCC(O)(Cn2cncn2)c2ccc(F)cc2F)c(C(=O)OCC)c1C` (stereo not drawn) [Compound 1j, Ethyl 2-[2-(2,4-difluorophenyl)-2-hydroxy-3-[1,2,4]triazol-1-yl-propylamino]-5-hexyl-4-methyl-thiophene-3-carboxylate], the minimum inhibitory concentration (MIC) in assay [1], in assay [2] and in assay [3] was over 2 µg/mL throughout.

As for `Cc1cc(C#N)c(NCC(O)(Cn2cncn2)c2ccc(F)cc2F)s1` (stereo not drawn) [Compound 1k, 2-[2-(2,4-Difluorophenyl)-2-hydroxy-3-[1,2,4]triazol-1-yl-propylamino]-5-methyl-thiophene-3-carbonitrile], the MIC in assay [1] was 0.5 µg/mL (≈ 1.33 µM); in assay [2], over 32 µg/mL; in assay [3], over 32 µg/mL.

On to `OC(Cn1cncn1)(Cn1cncn1)c1ccc(F)cc1F` [Fluconazole], for which the values for the MIC in assay [1], in assay [2] and in assay [3] were 1 µg/mL (≈ 3.27 µM), over 128 µg/mL and 128 µg/mL (≈ 418 µM), respectively.

On to `CCc1cc(C#N)c(NCC(O)(Cn2cncn2)c2ccc(F)cc2F)s1` (stereo not drawn) [Compound 1l, 2-[2-(2,4-Difluorophenyl)-2-hydroxy-3-[1,2,4]triazol-1-yl-propylamino]-5-ethyl-thiophene-3-carbonitrile], for which the MIC in assay [1] is 0.25 µg/mL (≈ 0.642 µM); in assay [2], over 16 µg/mL; in assay [3] it was over 16 µg/mL.

On to `CCCc1cc(C#N)c(NCC(O)(Cn2cncn2)c2ccc(F)cc2F)s1` (stereo not drawn) [Compound 1m, 2-[2-(2,4-Difluorophenyl)-2-hydroxy-3-[1,2,4]triazol-1-yl-propylamino]-5-propyl-thiophene-3-carbonitrile], for which the MIC in assay [1] is 0.12 µg/mL (≈ 0.297 µM); in assay [2], over 32 µg/mL; in assay [3] it was over 32 µg/mL.

`N#Cc1c(NCC(O)(Cn2cncn2)c2ccc(F)cc2F)sc2c1CCC2` (stereo not drawn) [Compound 1o, 2-[2-(2,4-Difluorophenyl)-2-hydroxy-3-[1,2,4]triazol-1-yl-propylamino]-5,6-dihydro-4H-cyclopenta[b]thiophene-3-carbonitrile]: the minimal inhibitory concentration (MIC) in assay [1] is 0.5 µg/mL (≈ 1.25 µM); in assay [2], over 16 µg/mL; in assay [3] it was over 16 µg/mL.

`CCCCCc1cc(C#N)c(NCC(O)(Cn2cncn2)c2ccc(F)cc2F)s1` (stereo not drawn) [Compound 1n, 2-[2-(2,4-Difluorophenyl)-2-hydroxy-3-[1,2,4]triazol-1-yl-propylamino]-5-pentyl-thiophene-3-carbonitrile]: the results for the MIC in assay [1], in assay [2] and in assay [3] were 0.25 µg/mL (≈ 0.579 µM), over 4 µg/mL and over 4 µg/mL, respectively.

For `CCOC(=O)c1cc(C)sc1NCC(O)(Cn1cncn1)c1ccc(F)cc1F` (stereo not drawn) [Compound 1a, Ethyl 2-[2-(2,4-difluorophenyl)-2-hydroxy-3-[1,2,4]triazol-1-yl-propylamino]-5-methyl-thiophene-3-carboxylate], the minimal inhibitory concentration (MIC) was 2 µg/mL (≈ 4.73 µM) in assay [1], over 16 µg/mL in assay [2] and over 16 µg/mL in assay [3].

For `CCCCCCCCCCc1cc(C(=O)OCC)c(NCC(O)(Cn2cncn2)c2ccc(F)cc2F)s1` (stereo not drawn) [Compound 1e, Ethyl 5-n-decyl-2-[2-(2,4-difluorophenyl)-2-hydroxy-3-[1,2,4]triazol-1-yl-propylamino]-thiophene-3-carboxylate], the MIC in assay [1], in assay [2] and in assay [3] was over 4 µg/mL throughout.

For `CCOC(=O)c1c(NCC(O)(Cn2cncn2)c2ccc(F)cc2F)sc2c1CCCCC2` (stereo not drawn) [Compound 1i, Ethyl 2-[2-(2,4-difluorophenyl)-2-hydroxy-3-[1,2,4]triazol-1-yl-propylamino]-5,6,7,8-tetrahydro-4H-cyclohepta[b]thiophene-3-carboxylate], the minimal inhibitory concentration (MIC) in assay [1] was 8 µg/mL (≈ 16.8 µM); in assay [2], over 8 µg/mL; in assay [3], over 8 µg/mL.

Consider `CCOC(=O)c1cc(CC)sc1NCC(O)(Cn1cncn1)c1ccc(F)cc1F` (stereo not drawn) [Compound 1b, Ethyl 2-[2-(2,4-difluorophenyl)-2-hydroxy-3-[1,2,4]triazol-1-yl-propylamino]-5-ethyl-thiophene-3-carboxylate], for which the results for the MIC in assay [1], in assay [2] and in assay [3] were 2 µg/mL (≈ 4.58 µM), over 4 µg/mL and over 4 µg/mL, respectively.

Regarding `C[C@@H]1[C@H](O)[C@@H](C)/C=C/C=C/C=C/C=C/C=C/C=C/C=C/[C@H](O[C@@H]2O[C@H](C)[C@@H](O)[C@H](N)[C@@H]2O)C[C@@H]2O[C@](O)(C[C@@H](O)C[C@@H](O)[C@H](O)CC[C@@H](O)C[C@@H](O)CC(=O)O[C@H]1C)C[C@H](O)[C@H]2C(=O)O` [Amphotericin B, reference compound], the “MIC C. albicans ATCC 24433” value in assay [1] came to 0.25 µg/mL (≈ 0.271 µM). Besides, in assay [2], the “MIC F. proliferatum ATCC 10052” value was 2 µg/mL (≈ 2.16 µM). Besides, in assay [3], the “MIC A. niger ATCC 16404” value is 1 µg/mL (≈ 1.08 µM).

As to `CCCc1cc(C(=O)OCC)c(NCC(O)(Cn2cncn2)c2ccc(F)cc2F)s1` (stereo not drawn) [Compound 1c, Ethyl 2-[2-(2,4-difluorophenyl)-2-hydroxy-3-[1,2,4]triazol-1-yl-propylamino]-5-propyl-thiophene-3-carboxylate], the MIC is 2 µg/mL (≈ 4.44 µM) in assay [1], over 16 µg/mL in assay [2] and over 16 µg/mL in assay [3].
